From patent US8735425B2, “Tetrahydroisoquinoline derivative” (Daiichi Sankyo Company, Limited, priority 2008, dated 2014)

Tests used:
[1] = target: T1, DGAT1 enzyme (Homo sapiens, UniProt O75907); experiment: DGAT1 inhibitory activity test; format: biochemical; conditions: test compound concentration of 0.05 μg/ml; read-out: Inhibitory Rate
T1 construct: made in house
T1 sequence (O75907 1-488): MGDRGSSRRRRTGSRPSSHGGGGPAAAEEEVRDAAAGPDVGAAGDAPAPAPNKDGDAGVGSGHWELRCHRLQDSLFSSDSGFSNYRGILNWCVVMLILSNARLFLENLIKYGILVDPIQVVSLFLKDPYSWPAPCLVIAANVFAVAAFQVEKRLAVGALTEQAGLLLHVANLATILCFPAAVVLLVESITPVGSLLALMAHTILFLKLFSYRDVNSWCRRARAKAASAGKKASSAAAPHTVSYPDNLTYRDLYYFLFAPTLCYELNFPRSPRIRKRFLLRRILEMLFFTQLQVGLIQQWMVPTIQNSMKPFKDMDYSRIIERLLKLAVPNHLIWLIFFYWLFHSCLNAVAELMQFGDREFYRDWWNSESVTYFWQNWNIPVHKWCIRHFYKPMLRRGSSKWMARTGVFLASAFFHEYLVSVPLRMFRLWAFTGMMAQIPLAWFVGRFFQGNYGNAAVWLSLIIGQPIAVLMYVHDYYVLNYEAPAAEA
Summary of the method: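 Reaction at 23° C for 30 min in 175 mM Tris-HCl pH 8.0, 8 mM MgCl2, 1 mg/ml BSA, 0.5% Triton X-100 with 0.3 mM 1,2-dioleoyl-sn-glycerol and 10 μM [14C]-oleoyl-CoA. Triglyceride extracted into heptane, separated by TLC, radioactivity quantified; % inhibition versus vehicle control, 0-min background subtracted.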

[2] = tested on: Male C57BL/6N mice; experiment: Triglyceride absorption suppression after fat loading (in vivo DGAT1 inhibitory effect); conditions: Mus musculus, po; dose of 10 mg/kg or lower, orally administered, mice fasted overnight, plasma triglyceride after fat loading; read-out: Triglyceride absorption suppressive activity
Experimental: The DGAT1 enzyme is important for the digestion and absorption of triglycerides, and the inhibition of DGAT1 in the small intestine suppresses the absorption of triglycerides. The in vivo activity of its DGAT1 inhibitory effect was evaluated with the suppressed absorption of triglycerides after fat loading as an index. Male C57BL/6N mice (7-12 weeks old, body weight: 17-25 g, Charles River Laboratories Japan Inc.) fasted overnight were assigned to Vehicle group 1, Vehicle group 2, and each test compound group, to which a vehicle (0.5% methylcellulose) or each test compound (1 to 10 mg/kg) suspended in vehicle was orally administered (5 mL/kg). After a given time, a lipoprotein lipase inhibitor (Pluronic-F127: Sigma-Aldrich Corp., 1 g/kg, 20% by weight dissolved in saline) was intraperitoneally administered (5 mL/kg) to each group. Immediately thereafter, distilled water for the Vehicle group 1 or a 20% fat-containing emulation (Intralipid 20%: TERUMO CORP., Japan) for the Vehicle group 2 and the compound groups were orally administered thereto (0.2 mL/mouse). After a given time of 1 to 4 hours after administration, blood was collected from the tail vein or the right ventricle, and plasma was immediately separated and collected. Then, the triglyceride concentration in plasma was measured using a commercially available kit (Triglyceride E-Test Wako: Wako Pure Chemical Industries, Ltd.). In this method, the administration of the lipoprotein lipase inhibitor suppresses the hydrolysis of triglycerides in the blood such that the triglycerides are accumulated in the blood. These triglycerides are derived from two origins: exogenous triglycerides absorbed in the gastrointestinal tract and endogenous triglycerides released from the liver. The triglyceride absorption suppressive activity of each test compound was calculated based on the equation shown below by removing the influence of the endogenous triglycerides. In this context, each test compound was separately confirmed to have no influence on the concentration of the endogenous triglycerides.
Triglyceride absorption suppressive activity (%)=100−[(Triglyceride concentration of each test compound group)−(Triglyceride concentration of Vehicle group 1)]/[(Triglyceride concentration of Vehicle group 2)−(Triglyceride concentration of Vehicle group 1)]×100

Row | inhibition at 0.05 µg/mL [1] | Structure (SMILES) | inhibition in vivo at up to 10 mg/kg [2]
1 | ≥ 50% | O=C(O)C[C@H]1CC[C@H](OC(=O)N2CCc3cc(NC(=O)Nc4ccccc4)ccc3C2)CC1 [Example 50, trans-6-(3-phenyl-ureido)-3,4-dihydro-1H-isoquinoline-2-carboxylic acid 4-carboxymethyl-cyclohexyl ester] | ≥ 60%
2 | ≥ 50% | O=C(O)C[C@H]1CC[C@H](OC(=O)N2CCc3cc(NC(=O)Nc4cccc(OC(F)F)c4)ccc3C2)CC1 [Example 51, trans-6-[3-(3-difluoromethoxy-phenyl)-ureido]-3,4-dihydro-1H-isoquinoline-2-carboxylic acid 4-carboxymethyl-cyclohexyl ester] | ≥ 60%
3 | ≥ 50% | O=C(O)C[C@H]1CC[C@H](OC(=O)N2CCc3cc(NC(=O)Nc4cccc(OC(F)(F)F)c4)ccc3C2)CC1 [Example 52, trans-6-[3-(3-trifluoromethoxy-phenyl)-ureido]-3,4-dihydro-1H-isoquinoline-2-carboxylic acid 4-carboxymethyl-cyclohexyl ester] | ≥ 60%
4 | ≥ 50% | CCOc1cccc(NC(=O)Nc2ccc3c(c2)CCN(C(=O)O[C@H]2CC[C@H](CC(=O)O)CC2)C3)c1C [Example 53, trans-6-[3-(3-ethoxy-2-methyl-phenyl)-ureido]-3,4-dihydro-1H-isoquinoline-2-carboxylic acid 4-carboxymethyl-cyclohexyl ester] | ≥ 60%
5 | ≥ 50% | CCOc1cc(NC(=O)Nc2ccc3c(c2)CCN(C(=O)O[C@H]2CC[C@H](CC(=O)O)CC2)C3)ccc1C [Example 54, trans-6-[3-(3-ethoxy-4-methyl-phenyl)-ureido]-3,4-dihydro-1H-isoquinoline-2-carboxylic acid 4-carboxymethyl-cyclohexyl ester] | ≥ 60%
6 | ≥ 50% | CCOc1ccc(C)c(NC(=O)Nc2ccc3c(c2)CCN(C(=O)O[C@H]2CC[C@H](CC(=O)O)CC2)C3)c1 [Example 55, trans-6-[3-(5-ethoxy-2-methyl-phenyl)-ureido]-3,4-dihydro-1H-isoquinoline-2-carboxylic acid 4-carboxymethyl-cyclohexyl ester] | ≥ 60%
7 | ≥ 50% | COc1cc(F)cc(NC(=O)Nc2ccc3c(c2)CCN(C(=O)O[C@H]2CC[C@H](CC(=O)O)CC2)C3)c1 [Example 56, trans-6-[3-(3-fluoro-5-methoxy-phenyl)-ureido]-3,4-dihydro-1H-isoquinoline-2-carboxylic acid 4-carboxymethyl-cyclohexyl ester] | ≥ 60%
8 | ≥ 50% | O=C(O)C[C@H]1CC[C@H](OC(=O)N2CCc3cc(NC(=O)Nc4ccc(F)c(F)c4)ccc3C2)CC1 [Example 57, trans-6-[3-(3,4-difluoro-phenyl)-ureido]-3,4-dihydro-1H-isoquinoline-2-carboxylic acid 4-carboxymethyl-cyclohexyl ester] | ≥ 60%
9 | ≥ 50% | COc1cc(NC(=O)Nc2ccc3c(c2)CCN(C(=O)O[C@H]2CC[C@H](CC(=O)O)CC2)C3)ccc1F [Example 58, trans-6-[3-(4-fluoro-3-methoxy-phenyl)-ureido]-3,4-dihydro-1H-isoquinoline-2-carboxylic acid 4-carboxymethyl-cyclohexyl ester] | ≥ 60%
10 | ≥ 50% | CCOc1cc(NC(=O)Nc2ccc3c(c2)CCN(C(=O)O[C@H]2CC[C@H](CC(=O)O)CC2)C3)ccc1F [Example 59, trans-6-[3-(3-ethoxy-4-fluoro-phenyl)-ureido]-3,4-dihydro-1H-isoquinoline-2-carboxylic acid 4-carboxymethyl-cyclohexyl ester] | ≥ 60%
11 | ≥ 50% | COc1ccc(F)c(NC(=O)Nc2ccc3c(c2)CCN(C(=O)O[C@H]2CC[C@H](CC(=O)O)CC2)C3)c1 [Example 60, trans-6-[3-(2-fluoro-5-methoxy-phenyl)-ureido]-3,4-dihydro-1H-isoquinoline-2-carboxylic acid 4-carboxymethyl-cyclohexyl ester] | ≥ 60%
12 | ≥ 50% | CCOc1ccc(F)c(NC(=O)Nc2ccc3c(c2)CCN(C(=O)O[C@H]2CC[C@H](CC(=O)O)CC2)C3)c1 [Example 61, trans-6-[3-(5-ethoxy-2-fluoro-phenyl)-ureido]-3,4-dihydro-1H-isoquinoline-2-carboxylic acid 4-carboxymethyl-cyclohexyl ester] | ≥ 60%
13 | ≥ 50% | CSc1ccc(NC(=O)Nc2ccc3c(c2)CCN(C(=O)O[C@H]2CC[C@H](CC(=O)O)CC2)C3)cc1 [Example 62, trans-6-[3-(4-methylsulfanyl-phenyl)-ureido]-3,4-dihydro-1H-isoquinoline-2-carboxylic acid 4-carboxymethyl-cyclohexyl ester] | ≥ 60%
14 | ≥ 50% | CSc1cccc(NC(=O)Nc2ccc3c(c2)CCN(C(=O)O[C@H]2CC[C@H](CC(=O)O)CC2)C3)c1 [Example 64, trans-6-[3-(3-methylsulfanyl-phenyl)-ureido]-3,4-dihydro-1H-isoquinoline-2-carboxylic acid 4-carboxymethyl-cyclohexyl ester] | ≥ 60%
15 | ≥ 50% | O=C(O)C[C@H]1CC[C@H](OC(=O)N2CCc3cc(NC(=O)Nc4cccc(C(F)(F)F)c4)ccc3C2)CC1 [Example 66, trans-6-[3-(3-trifluoromethyl-phenyl)-ureido]-3,4-dihydro-1H-isoquinoline-2-carboxylic acid 4-carboxymethyl-cyclohexyl ester] | ≥ 60%
16 | ≥ 50% | O=C(O)C[C@H]1CC[C@H](OC(=O)N2CCc3cc(NC(=O)Nc4cccc(F)c4)ccc3C2)CC1 [Example 67, trans-6-[3-(3-fluoro-phenyl)-ureido]-3,4-dihydro-1H-isoquinoline-2-carboxylic acid 4-carboxymethyl-cyclohexyl ester] | ≥ 60%
17 | ≥ 50% | Cc1cccc(NC(=O)Nc2ccc3c(c2)CCN(C(=O)O[C@H]2CC[C@H](CC(=O)O)CC2)C3)c1 [Example 68, trans-6-(3-m-tolyl-ureido)-3,4-dihydro-1H-isoquinoline-2-carboxylic acid 4-carboxymethyl-cyclohexyl ester] | ≥ 60%
18 | ≥ 50% | O=C(O)C[C@H]1CC[C@H](OC(=O)N2CCc3cc(NC(=O)Nc4ccc(C(F)(F)F)cc4)ccc3C2)CC1 [Example 69, trans-6-[3-(4-trifluoromethyl-phenyl)-ureido]-3,4-dihydro-1H-isoquinoline-2-carboxylic acid 4-carboxymethyl-cyclohexyl ester] | ≥ 60%
19 | ≥ 50% | CCc1cccc(NC(=O)Nc2ccc3c(c2)CCN(C(=O)O[C@H]2CC[C@H](CC(=O)O)CC2)C3)c1 [Example 70, trans-6-[3-(3-ethyl-phenyl)-ureido]-3,4-dihydro-1H-isoquinoline-2-carboxylic acid 4-carboxymethyl-cyclohexyl ester] | ≥ 60%
20 | ≥ 50% | Cc1ccc(NC(=O)Nc2ccc3c(c2)CCN(C(=O)O[C@H]2CC[C@H](CC(=O)O)CC2)C3)cc1 [Example 71, trans-6-(3-p-tolyl-ureido)-3,4-dihydro-1H-isoquinoline-2-carboxylic acid 4-carboxymethyl-cyclohexyl ester] | ≥ 60%
